Experimental data as given in paper PMC7076788, “Interactions of Destruxin A with Silkworms’ Arginine tRNA Synthetase and Lamin-C Proteins” (Toxins, 2020).
Numbering of substitutions follows the chain as printed. Where a SMILES comes first, the peptide text is derived from it. [ ]: non-standard residue; d: D form. dLac(3-vinyl) = C=CC[C@@H](O)C(=O)O; NMeV = CN[C@H](C(=O)O)C(C)C; NMeA = CN[C@@H](C)C(=O)O; βAla = NCCC(=O)O

Assays:
Assay in all cases: bio-layer interferometry, immobilised protein
Type in all cases: binding
BmArgRS [1] = biological target: T1, BmArgRS (Bombyx mori, UniProt A0A8R1WK71, V468A)
T1 construct: gene 101737924; apparently full length (catalytic core 216-481)
T1 sequence (A0A8R1WK71 1-683 V468A): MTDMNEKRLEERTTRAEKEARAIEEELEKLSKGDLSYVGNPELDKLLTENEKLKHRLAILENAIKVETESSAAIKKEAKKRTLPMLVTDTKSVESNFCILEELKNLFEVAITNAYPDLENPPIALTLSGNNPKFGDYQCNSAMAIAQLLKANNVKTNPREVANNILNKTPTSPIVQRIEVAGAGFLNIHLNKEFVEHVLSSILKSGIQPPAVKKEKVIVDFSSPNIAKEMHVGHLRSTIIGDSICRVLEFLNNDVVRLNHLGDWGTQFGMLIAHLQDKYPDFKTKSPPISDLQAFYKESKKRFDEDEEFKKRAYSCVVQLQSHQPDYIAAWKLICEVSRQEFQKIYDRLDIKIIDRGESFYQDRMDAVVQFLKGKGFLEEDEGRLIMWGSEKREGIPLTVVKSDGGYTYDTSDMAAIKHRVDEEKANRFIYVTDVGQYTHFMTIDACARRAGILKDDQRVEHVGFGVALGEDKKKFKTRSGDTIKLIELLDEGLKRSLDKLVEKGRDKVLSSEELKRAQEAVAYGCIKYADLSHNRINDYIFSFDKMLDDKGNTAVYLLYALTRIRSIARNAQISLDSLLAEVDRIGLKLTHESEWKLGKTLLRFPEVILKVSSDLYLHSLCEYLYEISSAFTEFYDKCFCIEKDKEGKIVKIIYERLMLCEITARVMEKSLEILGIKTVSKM

BmArgRS [2] = biological target: T2, BmArgRS (Bombyx mori, UniProt A0A8R1WK71)
T2 construct: gene 101737924; apparently full length (catalytic core 216-481)
T2 sequence (A0A8R1WK71 1-683): T1 sequence (A0A8R1WK71 1-683 V468A) with A468V
Source text: bio-layer interferometry, immobilised protein on BmArgRS

BmArgRS [3] = biological target: T3, BmArgRS (Bombyx mori, UniProt A0A8R1WK71, K475A)
T3 construct: gene 101737924; apparently full length (catalytic core 216-481)
T3 sequence (A0A8R1WK71 1-683 K475A): T1 sequence (A0A8R1WK71 1-683 V468A) with A468V, K475A

Structure (SMILES): C=CC[C@H]1OC(=O)CCNC(=O)[C@H](C)N(C)C(=O)[C@H](C(C)C)N(C)C(=O)[C@H]([C@@H](C)CC)NC(=O)[C@@H]2CCCN2C1=O [Destruxin A] (cyclo(I[NMeV][NMeA][βAla][dLac(3-vinyl)]P))
- Kd (BmArgRS [1]): 53 µM
- Kd (BmArgRS [2]): 55.3 µM
- Kd (BmArgRS [3]): 5.71 µM
